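How tested: cells in 96-well plates exposed to compound for 48 hours at five concentrations. GI50: concentration for 50% inhibition of growth.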 Calls of active or inactive are those of the source. Cut-off read from the data, not from the text of the source: active = GI50 up to about 1.1 µM and inactive = higher.

What all share (assay): NCI-60 cell line screen, 48 h
Experiment [1] relates to A498.
Experiment [2] concerns A549.
The test system of experiment [3] is COLO 205.
Experiment [4] deals with HCC 2998.
Experiment [5] deals with HCT-15.
Experiment [6] concerns HL-60.
In experiment [7] the test system is HOP-92.
Experiment [8] concerns Hs-578T.
In experiment [9] the test system is K562.
Experiment [10] concerns KM12.
The test system of experiment [11] is MDA-MB-435.
Experiment [12] deals with NCI-H522.
Experiment [13] concerns NCI/ADR-RES.
Experiment [14] has as its system OVCAR-5.
The subject of experiment [15] is OVCAR-8.
The test system of experiment [16] is SF-539.
Experiment [17] concerns SNB-75.
Experiment [18] has as its system SR.
The subject of experiment [19] is T47D.
In experiment [20] the test system is U-251.

As to `O=C(NCCCNC(=O)c1ccc2c(O)c(O)ccc2c1)c1ccc2c(O)c(O)ccc2c1`, the GI50 was > 48.3 µM (inactive) in experiment [1]; 32.3 µM (inactive) in [2]; 22.9 µM (inactive) in [3]; > 60.4 µM (inactive) in experiment [4]; 27.6 µM in experiment [5]; 6.32 µM (inactive) in experiment [6]. Also, the GI50 was 31 µM (inactive) in experiment [7]; 18.5 µM (inactive) in experiment [8]; 19.1 µM (inactive) in [9]; 18.3 µM (inactive) in experiment [10]; 15.1 µM (inactive) in experiment [11]; 23.8 µM (inactive) in experiment [12]. Also, the GI50 in [13] is 38.1 µM (inactive); in [14], 29.1 µM (inactive); in experiment [15] it was 35.6 µM (inactive); in experiment [16], 28.1 µM (inactive); in [17], 17.1 µM (inactive); in [18], 15.1 µM (inactive). The values for the GI50 in experiment [19] and in experiment [20] were > 100 µM (inactive) and 24.1 µM (inactive), respectively.

In the case of `COc1nc(OC)nc(-c2cccc(F)c2)n1`, the GI50 was 19.1 µM (inactive) in [1]; 17.1 µM (inactive) in experiment [2]; 15.4 µM (inactive) in experiment [3]; 13.4 µM (inactive) in [4]; 13.7 µM in experiment [5]; 24.3 µM (inactive) in experiment [6]. In addition, the GI50 in [7] was 6.41 µM (inactive); in [8], 32.1 µM (inactive); in [9], 18.1 µM (inactive); in experiment [10] it was 15.7 µM (inactive); in experiment [11] it was 15 µM (inactive); in experiment [12], 18.7 µM (inactive). Moreover, the GI50 in experiment [13] is 14.3 µM (inactive); in experiment [14], 11.5 µM (inactive); in [15], 23.4 µM (inactive); in experiment [16], 17.4 µM (inactive); in experiment [17], 21.2 µM (inactive); in experiment [18] it was 2.2 µM (inactive). For the same molecule, the figures for the GI50 in [19] and in experiment [20] were 13.2 µM (inactive) and 15.7 µM (inactive), respectively.

On to `CCCCCCCCCCCCCC(=O)N(CCCCCCCCC)CC(O)C(O)C(OC1OC(CO)C(O)C(O)C1O)C(O)CO` (stereo not given), for which the GI50 in experiment [1] is 21.2 µM (inactive); in [2] it was 22.3 µM (inactive); in experiment [3], 20.5 µM (inactive); in experiment [4] it was 18.5 µM (inactive); in experiment [5] it was 23.6 µM; in [6] it was 23.3 µM (inactive). Besides, the GI50 in experiment [7] was 17.3 µM (inactive); in experiment [8] it was 22.5 µM (inactive); in [9], 19.9 µM (inactive); in experiment [10], 17.7 µM (inactive); in [11], 19.8 µM (inactive); in [12], 23 µM (inactive). Besides, the GI50 in experiment [13] was 18.8 µM (inactive); in experiment [14], 32.9 µM (inactive); in experiment [15], 20.8 µM (inactive); in [16], 22 µM (inactive); in [17], 19.5 µM (inactive); in experiment [18], 25.6 µM (inactive). In addition, the GI50 in experiment [19] was 19.1 µM (inactive); in [20], 22.5 µM (inactive).

On to `COc1ccc(/N=C(/SS/C(=N/c2ccc(OC)cc2)c2ccc([N+](=O)[O-])o2)c2ccc([N+](=O)[O-])o2)cc1`, for which the GI50 in experiment [1] is 12.4 µM (inactive); in [2], 2.79 µM (inactive); in experiment [3] it was 1.92 µM (inactive); in [4], 1.32 µM (inactive); in experiment [5], 0.489 µM; in experiment [6] it was 1.69 µM (inactive). Moreover, the GI50 is 3.53 µM (inactive) in experiment [7]; 2.19 µM (inactive) in experiment [8]; 1.19 µM (inactive) in experiment [9]; 1.14 µM (inactive) in experiment [10]; 1.59 µM (inactive) in [11]; 0.286 µM (active) in experiment [12]. The GI50 in [13] is 1.39 µM (inactive); in experiment [14], 2.2 µM (inactive); in experiment [15], 1.37 µM (inactive); in experiment [16], 1.49 µM (inactive); in experiment [17], 1.27 µM (inactive); in experiment [18], 0.547 µM (active). The GI50 was 1.61 µM (inactive) in [19] and 0.35 µM (active) in [20].

Regarding `Cc1c2c(c(C)n1-c1ccccc1)C(=O)N(CCCCN1CCN(c3ccccc3)CC1)C2=O`, the GI50 in experiment [1] was 26.1 µM (inactive); in experiment [2], 14.5 µM (inactive); in experiment [3], 6.62 µM (inactive); in [4] it was 4.99 µM (inactive); in experiment [5], 7.74 µM; in [6], 5.5 µM (inactive). In addition, the GI50 in [7] was 8.17 µM (inactive); in experiment [8], 20.2 µM (inactive); in experiment [9], 4.22 µM (inactive); in experiment [10], 19.5 µM (inactive); in experiment [11], 8.05 µM (inactive); in experiment [12] it was 12.9 µM (inactive). Further, the GI50 in experiment [13] is 17 µM (inactive); in [14], 49.3 µM (inactive); in experiment [15], 14.2 µM (inactive); in experiment [16], 12 µM (inactive); in experiment [17], 6.89 µM (inactive); in experiment [18] it was 8.85 µM (inactive). Moreover, the GI50 in [19] is 3.49 µM (inactive); in experiment [20], 14.5 µM (inactive).

As to `CN(O)C(=O)c1cccc(Cl)c1`, the GI50 was > 100 µM (inactive) in experiment [1]; > 100 µM (inactive) in experiment [2]; > 100 µM (inactive) in [3]; > 100 µM (inactive) in experiment [4]; 56.1 µM in experiment [5]; 10.2 µM (inactive) in experiment [6]. Also, the GI50 in [7], in [8], in experiment [9], in experiment [10], in experiment [11] and in experiment [12] was > 100 µM (inactive) throughout. Also, the GI50 in experiment [13] is > 100 µM (inactive); in experiment [14], > 100 µM (inactive); in experiment [15] it was > 100 µM (inactive); in [16] it was > 100 µM (inactive); in experiment [17] it was > 100 µM (inactive); in [18], 32.7 µM (inactive). For the same molecule, the GI50 in experiment [19] and in experiment [20] was > 100 µM (inactive) throughout.

As to `O=C(CC(NC(=O)C(F)(F)F)C(=O)O)OCc1ccccc1` (stereo not given), the GI50 is > 100 µM (inactive) in experiment [1]; > 100 µM (inactive) in [2]; > 100 µM (inactive) in experiment [3]; > 100 µM (inactive) in experiment [4]; greater than 100 µM in [5]; > 100 µM (inactive) in experiment [6]. Further, the GI50 in [7], in [8], in experiment [9], in experiment [10], in experiment [11] and in experiment [12] was > 100 µM (inactive) each time. The GI50 in experiment [13], in experiment [14], in [15], in experiment [16], in experiment [17] and in [18] was > 100 µM (inactive) in each case. Besides, the GI50 in experiment [19] and in experiment [20] was > 100 µM (inactive) throughout.

On to `CC(=O)C1=C(C)N(c2ccccc2)C2(O)C=CC(O)=C3C(=O)c4ccccc4C(=O)C312` (stereo not given), for which the GI50 was 23 µM (inactive) in experiment [1]; 15.3 µM (inactive) in experiment [2]; 6.18 µM (inactive) in experiment [3]; 10.6 µM (inactive) in experiment [4]; 6.47 µM in experiment [5]; 5.69 µM (inactive) in experiment [6]. In addition, the GI50 in experiment [7] is 25.6 µM (inactive); in [8], 41.7 µM (inactive); in experiment [9], 8.13 µM (inactive); in experiment [10] it was 13.5 µM (inactive); in experiment [11], 2.45 µM (inactive); in experiment [12], 16.3 µM (inactive). Also, the GI50 in [13] was 3.36 µM (inactive); in experiment [14], 15.8 µM (inactive); in experiment [15], 9.18 µM (inactive); in experiment [16] it was 21.1 µM (inactive); in [17], 35.2 µM (inactive); in experiment [18] it was 8.55 µM (inactive). Further, the values for the GI50 in experiment [19] and in experiment [20] were 8.75 µM (inactive) and 18 µM (inactive), respectively.

`CCOC(=O)C12CCC(c3c(C)cccc3C)(O1)C(C(=O)OC)=C2C(=O)OC` (stereo not given): the GI50 in experiment [1] is 2.14 µM (inactive); in experiment [2], 3.62 µM (inactive); in [3], 1.87 µM (inactive); in [4] it was 6.7 µM (inactive); in experiment [5] it was 4.69 µM; in [6], 1.82 µM (inactive). The GI50 in experiment [7] was 4.24 µM (inactive); in experiment [8], 3.52 µM (inactive); in experiment [9], 3.62 µM (inactive); in experiment [10], 4.28 µM (inactive); in [11], 0.499 µM (active); in experiment [12], 5.38 µM (inactive). Besides, the GI50 in experiment [13] was > 9.25 µM (inactive); in [14], 3.19 µM (inactive); in experiment [15] it was 5.4 µM (inactive); in [16], 2.11 µM (inactive); in experiment [17] it was 3.64 µM (inactive); in [18], 0.646 µM (active). Besides, the GI50 in [19] was 6.35 µM (inactive); in experiment [20], 3.76 µM (inactive).

Turning to `Cc1ccc(Nc2cc(=O)[nH]c(=S)[nH]2)cc1`, the GI50 is > 100 µM (inactive) in experiment [1]; > 100 µM (inactive) in experiment [2]; > 100 µM (inactive) in experiment [3]; > 100 µM (inactive) in experiment [4]; greater than 100 µM in experiment [5]; > 100 µM (inactive) in experiment [6]. For the same molecule, the GI50 in [7], in experiment [8], in experiment [9], in [10], in [11] and in [12] was > 100 µM (inactive) throughout. Also, the GI50 in [13], in [14], in experiment [15], in [16], in [17] and in experiment [18] was > 100 µM (inactive) throughout. Also, the GI50 in [19] and in experiment [20] was > 100 µM (inactive) throughout.
